Measured values published in the PolyMetriX glass transition set.
± gives the standard deviation of the reports.

SMILES	glass transition temperature
*CC(*)c1ccc(-c2ccccc2)cc1 (repeat unit) [Poly(p-phenyl styrene) ]	138 ± 14 °C
*CC(*)CC1CCCCC1 (repeat unit)	75.00 °C
*Oc1ccc(Oc2ccc(C(=O)c3ccc(Oc4ccc(Oc5cccc(*)n5)cc4)cc3)cc2)cc1 (repeat unit)	124.00 °C
*c1ccc(Oc2ccccc2Oc2ccc(-n3c(=O)c4cc5c(=O)n(*)c(=O)c5cc4c3=O)cc2C(F)(F)F)c(C(F)(F)F)c1 (repeat unit)	277.00 °C
*c1ccc(OCCN(CC)c2ccc(-c3ccc(C(=C(C#N)C#N)c4ccc(-c5ccc(N(CC)CC)cc5)s4)s3)cc2)c(-c2cc(-c3ccccc3)c3cc(Oc4ccc5nc(*)cc(-c6ccccc6)c5c4)ccc3n2)c1 (repeat unit)	205.00 °C
*Oc1ccc(C2(c3ccc(Oc4ccc5c(=O)n6c7cc(Oc8ccc9c(c8)nc8c%10ccc(*)c%11cccc(c(=O)n98)c%11%10)ccc7nc6c6cccc4c56)cc3)c3ccccc3-c3ccccc32)cc1 (repeat unit)	396.00 °C
*c1ccc(C(=O)Nc2ccc(-c3nnc(*)o3)cc2)c(Oc2ccccc2)c1 (repeat unit)	235.00 °C
*CCCCCCNC(=O)CCCCCCC(=O)N* (repeat unit)	57.00 °C
*c1ccc2c(c1)C(=O)N(c1ccc(OCCN(CCOc3ccc(N4C(=O)c5ccc(C(*)(C(F)(F)F)C(F)(F)F)cc5C4=O)cc3)c3ccc(C(C#N)=C(C#N)C#N)cc3)cc1)C2=O (repeat unit)	218.00 °C
*CCCCCCCCCCN1C(=O)c2ccc(Oc3ccc4c(c3)C(=O)N(*)C4=O)cc2C1=O (repeat unit)	91.50 °C
*C(=O)c1ccc2c(c1)C(=O)N(c1ccc(-c3cc(-c4ccc(OC)cc4)cc(-c4ccc(N5C(=O)c6ccc(*)cc6C5=O)cc4)n3)cc1)C2=O (repeat unit)	331.00 °C
*CC(*)(C)C(=O)OCCOCCOCC1COCCOCCOCCO1 (repeat unit)	10.00 °C
*CC#CC#CCOc1cccc(C(=O)OCCN(CCOC(=O)c2cccc(O*)c2)c2ccc(/N=N/c3ccc(C#N)cc3)cc2)c1 (repeat unit)	50.00 °C
*c1ccc(Cc2ccc(N3C(=O)c4ccc(-c5ccc6c(c5)C(=O)N(*)C6=O)cc4C3=O)cc2)cc1 (repeat unit)	308.00 ± 6.8 °C
*/C=C/C1CC(*)C(C#N)([Si](C)(C)C)C1 (repeat unit)	211.00 °C
*Oc1ccc(C(C)(C)c2ccc(OC(=O)SCCCCCCSC(*)=O)cc2)cc1 (repeat unit)	58.00 °C
*CCc1ccc(*)o1 (repeat unit)	25.50 °C
*Oc1ccc(S(=O)(=O)c2ccc(Oc3ccc(/C=C4\CCCC/C(=C\c5ccc(Oc6ccc(S(=O)(=O)c7ccc(Oc8ccc(C(C)(C)c9ccc(*)cc9)cc8)cc7)cc6)cc5)C4=O)cc3)cc2)cc1 (repeat unit)	188.00 °C

Next, values leading:

glass transition temperature	SMILES
116.00 °C	*CCCCCCCCCCOc1ccc(-c2cc(-c3ccccc3)c(-c3ccc(NC(=O)c4ccc(C(=O)Nc5ccc(-c6c(-c7ccccc7)cc(-c7ccc(O*)cc7)cc6-c6ccccc6)cc5)cc4)cc3)c(-c3ccccc3)c2)cc1 (repeat unit)
74.00 °C	*Oc1cccc(C(F)(F)C(F)(F)C(F)(F)c2cccc(OC(=O)c3cccc(C(F)(F)C(F)(F)C(F)(F)c4cccc(C(*)=O)c4)c3)c2)c1 (repeat unit)
211.8 °C	*CC(=O)c1ccc(Oc2ccc(C(=O)COc3ccc(/C=C4\CCC/C(=C\c5ccc(O*)c(OC)c5)C4=O)cc3OC)cc2)cc1 (repeat unit)
-30.00 °C	*CC(*)C(=O)OCC(F)(F)C(F)(F)C(F)(F)F (repeat unit)
320.00 °C	*C(=O)Nc1ccc(Oc2ccc(C3(c4ccc(Oc5ccc(NC(=O)c6ccc7c(c6)C(=O)N(c6ccc(Oc8ccc(N9C(=O)c%10ccc(*)cc%10C9=O)cc8)cc6)C7=O)cc5)cc4)NC(=O)c4ccccc43)cc2)cc1 (repeat unit)
25.00 °C	*CC(O)COC(=O)CCCCCCCCCCC(=O)OCC(O)COc1ccc(C(C)(C)c2ccc(O*)cc2)cc1 (repeat unit)
324.00 °C	*C(=O)Nc1ccc(Cc2ccc(NC(=O)c3ccc4c(c3)C(=O)N(c3ccc(S(=O)(=O)c5ccc(N6C(=O)c7ccc(*)cc7C6=O)cc5)cc3)C4=O)cc2)cc1 (repeat unit)
167.00 °C	*Oc1ccc(S(=O)(=O)c2ccc(Oc3ccc(C(C)(C)c4ccc(*)c(C(O)(C(F)(F)F)C(F)(F)F)c4)cc3C(O)(C(F)(F)F)C(F)(F)F)cc2)cc1 (repeat unit)
205.00 °C	*c1ccc(Oc2ccc(C(c3ccc(Oc4ccc(-c5ncc(*)o5)cc4C(F)(F)F)cc3)(C(F)(F)F)C(F)(F)F)cc2)c(C(F)(F)F)c1 (repeat unit)
52.00 °C	*CC(*)C(=O)OCCC(F)(F)C(F)(F)C(F)(F)C(F)(F)C(F)(F)C(F)(F)C(F)(F)C(F)(F)F (repeat unit)
13.00 °C	*CC(*)C(=O)Oc1ccc(C(=O)OCCCC)cc1 (repeat unit)
196.00 °C	*Oc1ccc(S(=O)(=O)c2ccc(Oc3c(C)cc(C(c4cc(C)c(*)c(C)c4)(C(F)(F)F)C(F)(F)F)cc3C)cc2C(O)(C(F)(F)F)C(F)(F)F)c(C(O)(C(F)(F)F)C(F)(F)F)c1 (repeat unit)
366.50 °C	*c1ccc2c(c1)C(=O)N(c1cc(C(=O)O)cc(N3C(=O)c4ccc(C(*)(C(F)(F)F)C(F)(F)F)cc4C3=O)c1)C2=O (repeat unit)
181.50 °C	*CCCCCCN1C(=O)C(=O)N(c2ccc(C)c(N3C(=O)C(=O)N(*)C3=O)c2)C1=O (repeat unit)
159.00 °C	*Oc1ccc(Oc2ccc(C(=O)c3ccc(C(=O)c4ccc(*)cc4)cc3)cc2)cc1-c1cccc(C)c1 (repeat unit)
195.00 °C	*c1ccc2oc(-c3ccc4oc5ccc(-c6nc7cc(C(*)(C(F)(F)F)C(F)(F)F)ccc7o6)cc5c4c3)nc2c1 (repeat unit)
210.00 °C	*/C(C#N)=C(\C#N)n1c(=O)c2cc3c(=O)n(*)c(=O)c3cc2c1=O (repeat unit)
241.00 °C	*CC(=O)Nc1ccc(Oc2ccc(S(=O)(=O)c3ccc(Oc4ccc(NC(=O)CN5C(=O)c6ccc(C(c7ccc8c(c7)C(=O)N(*)C8=O)(C(F)(F)F)C(F)(F)F)cc6C5=O)cc4)cc3)cc2)cc1 (repeat unit)
36.00 °C	*Oc1ccc(CC(NC(=O)CCc2ccc(OC(=O)CCCCCCCCC(*)=O)cc2)C(=O)OC(C)CC)cc1 (repeat unit)
265.00 °C	*CC1CC2CC1C1CCC(Cn3c(=O)c4cc5c(=O)n(*)c(=O)c5cc4c3=O)C21 (repeat unit)
122.50 °C	*CCCCCCNC(=O)c1ccccc1-c1ccccc1C(=O)N* (repeat unit)
149.00 °C	*CC(O)CN(*)c1cc(C)c(/N=N/c2ccc([N+](=O)[O-])cc2C)c(C)c1 (repeat unit)
156.00 °C	*C(=O)N1C(=O)N(C(=O)c2ccc3c(c2)C(=O)N(c2ccc(Oc4ccc(N5C(=O)c6ccc(*)cc6C5=O)cc4)cc2)C3=O)C(C)(C)C1=O (repeat unit)
